The source of these data is patent publication US20100255580A1, “Differentiation of Human Embryonic Stem Cells” (LIFESCCAN, INC., priority 2007, published 2010).

Experiment [1] relates to human embryonic stem cell line H1. Briefly: Real-time PCR of definitive endoderm markers, H1 on human serum or […] (Examples 30, 31, 35). In kind it is cell-based. The following applies: for expression of definitive endoderm markers: H1 passage 55 on human serum coated plates, with activin A, vs activin A only. The method, then: Cultures of the human embryonic stem cell line H1 at passage 55 were grown and differentiated on human serum (Sigma, #H1388, MO) coated plates. 0.5 ml of human serum was added to each well of 6 well tissue culture treated dish, incubated for 1 hr at room temperature, and aspirated before adding human embryonic stem cells. After cells reached 80% confluency, they were treated as follows: 2 days 0.5% FBS containing 10 ng/ml mouse recombinant Wnt3a (R&D) or 100 nM GSK-3B inhibitor IX (Catalog #361550, Calbiochem, CA) and 100 ng/mlActivin A (R&D). This was followed by 3 days 2% FBS plus 100 ng/mlActivin A. Cultures were then analyzed by real-time PCR (FIG. 46, panels a & b). […] These findings parallel our findings for human embryonic stem cells cultured on […]™ or human fibronectin coated plates.
The effectiveness of a number of commercially available GSK-3B inhibitors was evaluated in formation of DE from human embryonic stem cells. The following GSK-3B inhibitors were evaluated at 100 nM: GSK-3B inhibitor VIII (Catalog #361549, Calbiochem, CA), GSK-3B inhibitor IX (Catalog #361550, Calbiochem, CA), GSK-3B inhibitor XI (Catalog #361553, Calbiochem, CA), GSK-3B inhibitor XII (Catalog #361554, Calbiochem, CA). […] Control cultures were treated with low serum plus high dose of AA. FIG. 47, panels a and b depicts the gene expression of definitive endoderm markers at day 5. GSK-3B inhibitor IX and XI were both effective in inducing DE formation as compared to GSK-3B inhibitor VIII and XII.
The following combinations of WNT1+AA were tested:
a) 20 ng/ml of WNT1+100 ng/ml AA in 0.5% FBS+DM-F12 for days 1-2 followed by 2% FBS+DM-F12+100 ng/ml AA for day three, b) 20 ng/ml of WNT1+100 ng/ml AA in 0.5% FBS+DM-F12 for days 1-2 followed by 2% FBS+DM-F12+100 ng/ml AA for days 3-5, c) 10 ng/ml of WNT1+100 ng/ml AA in 0.5% FBS+DM-F12 for days 1-2 followed by 2% FBS+DM-F12+100 ng/ml AA for day three, d) 10 ng/ml of WNT1+100 ng/ml AA in 0.5% FBS+DM-F12 for days 1-2 followed by 2% FBS+DM-F12+100 ng/ml AA for days 3-5, e) 20 ng/ml of WNT1+100 ng/ml AA in 0.5% FBS+DM-F12 for days 1-2 followed by 2% FBS+DM-F12+100 ng/ml AA+20 ng/ml of WNT1 for day three, f) 20 ng/ml of WNT1+100 ng/ml AA in 0.5% FBS+DM-F12 for days 1-2 followed by 2% FBS+DM-F12+100 ng/ml AA+20 ng/ml of WNT1 for days 3-5.
A general note: Quantitative PCR measures a nucleic acid by following its amplification.

Experiment [2] deals with human embryonic stem cell line H9. Description: FACS of CXCR4 and CD9, H9 maintained on […] and differentiated on MEFs (Example 25). In kind it is cell-based. The settings on record: for CXCR4 positive cells (FACS): without (label Activin A) or with Wnt3a. The method, then: Adhered cells were removed from culture plates by five-minute incubation with TrypLE™ Express solution (Invitrogen, CA). Released cells were resuspended in human embryonic stem cell culture medium and recovered by centrifugation, followed by washing and resuspending the cells in a staining buffer consisting of 2% BSA, 0.05% sodium azide in PBS (Sigma, MO). As appropriate, the cells were Fc-receptor blocked for 15 minutes using a 0.1% γ-globulin (Sigma) solution. […] Controls included appropriate isotype matched antibodies, unstained cells, and cells stained only with secondary conjugated antibody. All incubations with antibodies were performed for 30 mins at 4° C. after which the cells were washed with the staining buffer. Samples that were stained with unconjugated primary antibodies were incubated for an additional 30 mins at 4° C. with secondary conjugated PE or -APC labeled antibodies. See Table I for a list of secondary antibodies used. Washed cells were pelleted and resuspended in the staining buffer, and the cell surface molecules were identified using a FACS Array (BD Biosciences) instrument, collecting at least 10,000 events.
Cells from the human embryonic stem cell line H9 cultured on […]™ for at least five passages were seeded onto MEF feeders in ES media.
At day 3 and 5, the cultures were analyzed by real time PCR for SOX-17, SOX-7, Alpha-fetal protein (AFP), CXCR4, Brychyury (Bry), gooscecoid (GSC), HNF-3 beta, GATA4, hTERT and Oct4. AFP and SOX-7 are regarded as visceral endoderm markers while GATA4, HNF-3beta and SOX-17 represent definite endoderm markers and GSC, Bry, and CXCR4 represent markers of primitive streak. hTERT and Oct-4 are markers for self renewal and pluripotency respectively. FACS analysis was also performed at day 3 and 5.

Another experiment deals with SA002 ES line. Description: Real-time PCR and FACS of DE markers, SA002 on […]. In kind it is cell-based, human. The settings on record: SA002 P38; 20 ng/ml Wnt-3a with 100 ng/ml activin A. The source says:
Expression of CXCR4 is depicted in FIG. 45: a) AA treatment b) AA+Wnt-3a c) AA+GSK-3B inhibitor.

The test system of experiment [3] is human embryonic stem cell line H9. Description: Real-time PCR of marker gene expression, H9 on MEF (Examples 2-7). The format is cell-based. The method, then:
Cells were harvested at the time points indicated in FIG. 3 and assayed by PCR for the expression of genes shown (FIGS. 3, 4 and 5).
After this time interval, the cells were then treated for six days with combinations of retinoic acid and FGF as outlined in Example 2, then the culture medium was removed and replaced with medium comprising DMEM/F12 with 2% FBS, containing the γ-secretase inhibitors L-685,458 at 10 μM for three days.
Cells were continuously cultured for another 3 to 5 days in basal medium with retinoic acid at 1 μM, alone or with bFGF. RNA samples were harvested from cells at various time points along this process to help evaluate the directed differentiation of the cells. Furthermore, culture medium and factors were regularly removed and replenished throughout the differentiation protocol.
RNA extraction, purification, and cDNA synthesis. RNA samples were purified by binding to a silica-gel membrane (Rneasy Mini Kit, Qiagen, CA) in the presence of an ethanol-containing, high-salt buffer followed by washing to remove contaminants. The RNA was further purified using a TURBO DNA-free kit (Ambion, INC), and high-quality RNA was then eluted in water. Yield and purity were assessed by A260 and A280 readings on a spectrophotometer. cDNA copies were made from purified RNA using an ABI (ABI, CA) high capacity cDNA archive kit.
Real-time PCR amplification and quantitative analysis.
Final data were expressed relative to a calibrator sample.

[4] abbreviates: day 3, high concentration of Activin A.
Setting [5] is: day 5, high concentration of activin A.

`O=C1Nc2cc(Br)ccc2/C1=C1/Nc2ccccc2/C1=N\O` [GSK-3B inhibitor IX, reference compound]: the “inducing DE formation” value in experiment [1] (H1P54 on MATRIGEL, 100 nM for first two days, compared to GSK-3B inhibitor VIII and XII) is given as “effective”. In experiment [1], the “expression of definitive endoderm markers” value is “Robust expression”.
As for Wnt-3a, the “role in differentiation of human embryonic stem cells, cultured on MEFs, to definitive endoderm” value in experiment [2] was “does not appear to play a significant role”. Besides, the “CXCR4 positive cells (FACS)” value in experiment [2] (setting [4]) was 23-33%; in experiment [2] (setting [5]) it was 43-51%. The “expression of definitive endoderm markers” value in experiment [1] is given as “Robust expression”. Also, the “expression of DE markers” value in the experiment with SA002 ES line is reported as “robust expression”.
Take “Activin A: a member of the TGFβ superfamily; R&D Systems; Group 2 = Activin A (100 ng/ml)”: the “increase of Nkx2.2 expression compared to samples without activin A” value in experiment [3] (50 ng/ml activin A with 50 ng/ml basic FGF and 1 μM Retinoic Acid) is listed as “about 35 fold”. Further, the Pdx1 gene expression result in experiment [3] (Activin A 100 ng/ml up to seven days, 0% to 2% serum) is recorded as “no Pdx1 gene expression was observed”. In addition, in experiment [3] (H9, activin A 100 ng/ml), the “expression of Brachyury” value is “decreased” and the “expression of the neuronal marker Zic1” value is listed as “no effect”. The “expression of the extraembryonic endoderm markers Sox7 and AFP” value in experiment [3] (H9, activin A 100 ng/ml, one to seven days) is “time-dependent decrease”. The “anterior endoderm markers, Cerberus, Otx-1 and Hex genes” value in experiment [3] (H9, activin A 100 ng/ml, three and five days) is on record as “significant up regulation”. In experiment [3] (H9 line, activin A 100 ng/ml, two, five and eight days), the “expression of CXCR4, GATA4, HNF-3beta, Mix11 and Sox-17 mRNA” value is “time-dependent increase”. For the same compound, the “expression of Ngn3 or Insulin” value in experiment [3] (activin A alone or in combination with retinoic acid and FGFs) is on record as “did not induce”. For the same compound, in experiment [3] (activin A or retinoic acid alone), the “expression of Pdx1” value is given as “did not induce”. The “CXCR4 positive cells (FACS)” value in experiment [2] (setting [4]) is reported as 32-42%. For the same compound, the “CXCR4 positive cells (FACS)” value in experiment [2] (setting [5]) is listed as 28-32%.
